This is an account of results in patent US20240094197A1, “Method for removing protein corona of the surface of nanometer particle” (ZHEJIANG UNIVERSITY, priority 2022, published 2024).

For data set [1], the system named is human-derived tumor xenograft of PDA. Nature of the data set: In vivo antitumor activity (PDA model). Set-up: species or system BALB/c nude mice. As to the method: BALB/c nude mice bearing human-derived tumor xenograft of PDA in the subcutaneous region were selected and grouped into seven groups (n=6). Each group was intravenously injected with LPGL liposome dispersion (dose equivalent to GEM 10 mg/kg), PGL liposome dispersion (dose equivalent to GEM 10 mg/kg), LGL liposome dispersion (dose equivalent to GEM 10 mg/kg), GL liposome dispersion (dose equivalent to GEM 10 mg/kg), GEM PBS7.4 dispersion (dose equivalent to GEM 10 mg/kg), LPL liposome dispersion or PBS 7.4 buffer respectively every two days for a total of four times. The 16th day was the first time of intravenous injection administration. The tumor site of each group was treated with ultrasound stimulation (acoustic intensity: 2 W/cm^2, frequency: 3 MHz, duty cycle: 50%, duration time: 20 min) after post-injection. The width and length of the tumors and the bodyweight of mice were measured during the treatment. At the end of the experiment at 36 days, the blood was collected, then mice were euthanized, tumors were dissected and weighed. The therapeutic efficacy was evaluated by comparing tumor size in the experimental group and control group. The tumor inhibition rate=100%×(mean tumor weight of PBS group−mean tumor weight of experimental group)/mean tumor weight of PBS group. The dissected tumors were fixed with 4% neutral buffered paraformaldehyde and embedded in paraffin. Tissue sections of 5-μm thick were mounted onto glass slides and stained with hematoxylin-eosin (H&E), and then examined by light microscopy. The immunohistochemistry staining of Ki67 was tested to investigate the percentage of proliferous tumor cells positively stained in the examined field. Tissue sections were subjected to Ki67 staining using the Ki67-antibody Assay Kit according to the manufacturer's protocol. Apoptotic cells were also identified using TUNEL Apoptosis Assay Kit and examined using CLSM

The subject of data set [2] is three-dimensional (3D) multicellular tumor spheroids of Huh7. The experiment in a line: Cytotoxicity on 3D multicellular tumor spheroids (Alamar Blue). Particulars: serum-containing medium, ultrasound stimulation, 72 h, equivalent to GEM 0~10 μM. The class given is cell-based, human. As to the method: (§1) The cytotoxicity of the liposome was tested on the three-dimensional (3D) multicellular tumor spheroids of BxPC3 or Huh7. The tumor spheroids were established using the hanging drop method. The mixture of LPGL, PGL, LGL, GL or free gemcitabine (GEM) and serum-containing medium were respectively added into the wells containing three-dimensional (3D) multicellular tumor spheroids of BxPC3 or Huh7 at the final testing concentrations (equivalent to GEM: 0˜10 μM), and treated with ultrasound stimulation (acoustic intensity: 2 W/cm^2, frequency: 3 MHz, duty cycle: 50%, duration time: 5 min), then incubated for 72 h. Meanwhile, the LPL liposome with equimolar ratio to LPGL liposome was tested as a control. Afterward, the culture medium was replaced with a mixture of 90 μL fresh culture medium and 10 μL Alamar Blue Cell Viability Reagent, and was continuously incubated for 12 h. The sample plates were then detected using a plate reader at 530 nm excitation and 590 nm emission to obtain fluorescence intensity readouts. In addition, apoptosis induced by the liposome in spheroids were further determined by the TdT-mediated dUTP nick end labeling (TUNEL) assay, and the positive TUNEL-staining cells were examined by CLSM.

The subject of data set [3] is three-dimensional (3D) multicellular tumor spheroids of BxPC3. Described as above. The class given is cell-based, human. As to conditions: serum-containing medium, ultrasound stimulation, 72 h, equivalent to GEM 0~10 μM. As to the method: as §1
Data set [4] concerns human-derived tumor xenograft of HCC. The experiment in a line: In vivo antitumor activity and toxicity (HCC model). Set-up: species or system BALB/c nude mice. As to the method:
The study of liposome and its characteristics and anti-tumor activity in Example 2 was the same as that in Example 1. The difference was that LPGL liposome and LGL liposome were prepared by replacing DSPE-PEG2000-RGD with DSPE-PEG2000-NGR. The DSPE-PEG2000-NGR refers to 1,2-distearoyl-sn-glycero-3-phosphoethanolamine-N-[methoxy (polyethylene glycol)-2000]-NGR targeting peptide, the amino acid sequence of NGR targeting peptide was Gly (glycine)-Gly (glycine)-Cys (cysteine)-Asn (asparagine)-Gly (glycine)-Arg (arginine)-Cys (cysteine) with the amino acid sequence GGCNGRC (SEQ ID NO: 2).
BALB/c nude mice bearing human-derived tumor xenograft of hepatocellular carcinoma (HCC) in the subcutaneous region were selected and grouped into six groups (n=9, wherein three mice of each group were selected to measure the accumulation content of gemcitabine triphosphate active metabolite (dFdCTP) in the tumor after 24 h of first intravenous injection). Same to the PDA model in the Example 1, after BALB/c nude mice subcutaneously bearing human-derived tumor xenograft of HCC were injected with free GEM PBS 7.4 buffer, GL liposome, NGR modified LGL liposome, PGL liposome, NGR modified LPGL liposome or PBS 7.4, the tumor site was treated with ultrasound stimulation (+US, acoustic intensity: 2 W/cm^2, frequency: 3 MHz, duty cycle: 50%, duration time: 20 min). At 24 h after firstly intravenous injection, the accumulation content of gemcitabine triphosphate active metabolite (dFdCTP) in the tumor was shown in FIG. 17B. As GEM could quickly be phosphorylated into its active metabolite of GEM triphosphate (dFdCTP) in tumor, so the dFdCTP was widely used as a quantitative index of GEM.
The tumor size and the bodyweight of mice in each group was shown in FIG. 17C, FIG. 17D, FIG. 17E and FIG. 17F. […] At the end of the 34-day experiment, the mice serum was sampled, and the content of alanine aminotransferase (ALT), aspartate aminotransferase (AST), creatinine (CRE) and blood urea nitrogen (BUN) in the serum was detected to evaluate the in vivo hepatic and renal toxicity (as shown in Table 4).

For data set [5], the system named is 3D multicellular tumor spheroids of BxPC3. The experiment in a line: Morphology and apoptosis of tumor spheroids (light microscope, TUNEL staining). Format: cell-based, human. Particulars: equivalent to GEM 0.1 μM, serum-containing medium, ultrasound stimulation, 72 h. The protocol:
The method for inhibiting 3D multicellular tumor spheroids of BxPC3 with free GEM and different liposomes is as follows: the mixture of LPGL, PGL, LGL, GL liposome, free gemcitabine (GEM) or PBS and serum-containing medium was incubated with 3D multicellular tumor spheroids of BxPC3 at the final testing concentrations (equivalent to GEM: 0.1 μM), and treated with ultrasound stimulation (acoustic intensity: 2 W/cm^2, frequency: 3 MHz, duty cycle: 50%, duration time: 5 min), then incubated for 72 h, the morphology of 3D multicellular tumor spheroids of BxPC3 in different treatment group was observed using light microscope and TUNEL staining, scale bar=500 μm. […] (10E) The mean integrated optical density (IOD) of fluorescence in two inner layers of 75 μm and 100 μm (as shown in FIG. 10 D) in 3D multicellular tumor spheroids of BxPC3 was analyzed using Image-pro Plus 6.0 software to evaluate the penetration ability of liposome.
The cytotoxicity of the liposome was tested on the three-dimensional (3D) multicellular tumor spheroids of BxPC3 or Huh7. […] The sample plates were then detected using a plate reader at 530 nm excitation and 590 nm emission to obtain fluorescence intensity readouts. In addition, apoptosis induced by the liposome in spheroids were further determined by the TdT-mediated dUTP nick end labeling (TUNEL) assay, and the positive TUNEL-staining cells were examined by CLSM.

Data set [6] deals with BxPC3 cells. Nature of the data set: Endocytic pathway in tumor cells (endocytosis inhibitors). The class given is cell-based, human. As to conditions: chlorpromazine 50 μM, genistein 200 μM, wortmannin 5 μM, cytochalasin D 5 μM; for inhibition rate on the endocytosis of LPGL in BxPC3 cells: serum-containing medium; for inhibition at 50 µM / inhibition at 5 µM / inhibition at 200 µM: Homo sapiens. The protocol:
BxPC3 cells (1×10^5 cells/mL, 1 mL) were cultured in 12-well plates for 24 h, and the culture medium was then replaced with 1 mL fresh serum-free medium. Chlorpromazine (50 μM, clathrin-mediated endocytosis inhibitor), genistein (200 μM, caveolae-mediated endocytosis inhibitor), wortmannin (5 μM, phosphatidylinositol 3-kinases-mediated macropinocytosis inhibitor), or cytochalasin D (5 μM, actin-polymerization inhibitor) was added to the medium for 2 h of incubation. Another group of BxPC3 cells without any endocytosis inhibitor treatment was cultured for 2 h as the control group. Next, the mixture of Cy5-labeled LPGL liposome (equivalent to fluorescent lipids of 60 μg/mL, 20 μL) and serum-containing medium or serum-free medium was respectively added into the plate, and subsequently treated with or without ultrasound stimulation (acoustic intensity: 2 W/cm^2, frequency: 3 MHz, duty cycle: 50%, duration time: 5 min). After incubation of 3 h, cells were washed, digested and collected into a centrifugal tube, and the mean fluorescence intensity was detected by flow cytometry.

The mark [7] stands for this setting: mice serum, end of the 34-day experiment, LGL and LPGL are NGR modified.
[8] abbreviates: BXPC-3, serum-containing medium, with ultrasound stimulation, read-out: inhibition rate on the endocytosis of LPGL in BxPC3 cells.
Setting [9] is: BXPC-3, serum-containing medium, without ultrasound stimulation, read-out: inhibition rate on the endocytosis of LPGL in BxPC3 cells.
[10] abbreviates: BXPC-3, serum-free medium, without ultrasound stimulation, read-out: inhibition rate on the endocytosis of LPGL liposome in BxPC3 cells.

Where two headings read alike, the source gives them in different places.

Take `Nc1ccn([C@@H]2O[C@H](CO)[C@@H](O)C2(F)F)c(=O)n1` [GEM, gemcitabine]: the “side effects: body weight, white blood cell (WBC) and blood platelet” value in data set [1] (during treatment / end of the 36-day experiment) is “distinct body weight loss, and hematological damage on sharp decrease of white blood cell (WBC) and blood platelet”. In data set [1] (end of the 36-day experiment), the “H&E staining of excised tumors, vs LPL liposome and PBS” value is reported as “much less densely populated cells”; the “distribution of apoptotic cells in tumor (TUNEL assay)” value is “merely existed around the tumor periphery”. Moreover, the “change of tumor volume” value in data set [1] (i.v. every two days, four times, dose equivalent to GEM 10 mg/kg, ultrasound on tumor 20 min) is reported as “firstly delayed, but then recovered to grow when stopping administration”. Also, the “cytotoxicity against 3D multicellular tumor spheroids of Huh7” value in data set [2] is “dose-dependent cytotoxicity”. In addition, the “cytotoxicity against 3D multicellular tumor spheroids of BxPC3” value in data set [3] is on record as “dose-dependent cytotoxicity”. Further, the bodyweight of mice entry in data set [4] (during treatment) is on record as “gradually decreased”. The “content of AST, ALT, BUN and CRE relative to normal range” value in data set [4] (mice serum, end of the 34-day experiment) was “beyond the maximum of normal limit”. In data set [4] (setting [7]), this compound came in with an ALT of 81.1 ± 10.5 U/L, an AST of 218.6 ± 25.3 U/L, a BUN of 47.6 ± 5.0 mg/dL and a CRE of 0.68 ± 0.17 mg/dL. Moreover, in data set [5], the “apoptotic cells in BxPC3 spheroids (TUNEL staining)” value is “few apoptotic cells distributed around the spheroid's periphery” and the “morphology of BxPC3 spheroids (light microscope)” value is “no significant change in morphology”.

With `C=C1[C@@H](C)[C@H]2[C@H](Cc3ccccc3)NC(=O)[C@]23[C@H](OC(C)=O)/C=C/[C@@](C)(O)C(=O)[C@@H](C)C/C=C/[C@H]3[C@@H]1O` [cytochalasin D], the “inhibition rate on the endocytosis of LPGL in BxPC3 cells” value in data set [6] (with ultrasound stimulation) was 17.0%; in data set [6] (without ultrasound stimulation) it was 10.2%. Besides, the “inhibition rate on the endocytosis of LPGL liposome in BxPC3 cells” value in data set [6] (serum-free medium, without ultrasound stimulation) stood at 19.9%.

Usually inhibition stands for the change of the read-out against control, counted positive when it falls. As to `CN(C)CCCN1c2ccccc2Sc2ccc(Cl)cc21` [chlorpromazine], the inhibition at 50 µM in data set [6] (setting [8]) is 24.4%; in data set [6] (setting [9]) it was 35.9%; in data set [6] (setting [10]), 21.1%.

Take `COC[C@H]1OC(=O)c2coc3c2[C@@]1(C)C1=C(C3=O)[C@@H]2CCC(=O)[C@@]2(C)C[C@H]1OC(C)=O` [wortmannin]: the inhibition at 5 µM in data set [6] (BXPC-3, read-out: inhibition rate on the endocytosis of LPGL in BxPC3 cells, serum-containing medium, with ultrasound stimulation) came to 24.8%; in data set [6] (BXPC-3, read-out: inhibition rate on the endocytosis of LPGL in BxPC3 cells, serum-containing medium, without ultrasound stimulation), 23.5%; in data set [6] (BXPC-3, read-out: inhibition rate on the endocytosis of LPGL liposome in BxPC3 cells, serum-free medium, without ultrasound stimulation), 13.4%.

With `O=c1c(-c2ccc(O)cc2)coc2cc(O)cc(O)c12` [genistein], the inhibition at 200 µM in data set [6] (setting [8]) came out at 52.5%; in data set [6] (setting [9]), 28.9%; in data set [6] (setting [10]) it was 57.6%.
